Literature values in US20260102351A1, “LYOPHILIZED FORMULATION OF CROFELEMER AND METHODS OF TREATMENT USING THE SAME” (priority 2022, published 2026).

Conditions: human, in vivo

## Crofelemer
  absorption from the GI tract: little or no absorption
  systemic bioavailability in humans: virtually no systemic bioavailability
  tolerability: well tolerated
